# pIC50: −log10 of the molar value.
# System: 817829-284-R-J1-PDC complex spheroid viability
# Assay: Anticancer human tumor 817829-284-R-J1-PDC patient-derived colon adenocarcinoma cell line growth inhibition [POLQ]
# Settings: for pIC50: curve of first compound; for viability, T/C: stronger effect = lower value
# Procedure, shortened: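 Three-cell-type spheroids modelling solid tumor plus stroma served as the readout system; POL inhibitors were tested individually and in combination, concentration ranges set by clinical Cmax where known.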
# [1] = second compound 0.0316 µM, first compound 0.0316 µM
# [2] = second compound 0.0316 µM, first compound 0.1 µM
# [3] = second compound 0.0316 µM, first compound 0.316 µM
# [4] = second compound 0.0316 µM, first compound 1 µM
# [5] = second compound 0.0316 µM, first compound 3.16 µM
# [6] = second compound 0.0316 µM, first compound 10 µM
# [7] = second compound 0.1 µM, first compound 0.0316 µM
# [8] = second compound 0.1 µM, first compound 0.1 µM
# [9] = second compound 0.1 µM, first compound 0.316 µM
# [10] = second compound 0.1 µM, first compound 1 µM
# [11] = second compound 0.1 µM, first compound 3.16 µM
# [12] = second compound 0.1 µM, first compound 10 µM
# [13] = second compound 0.316 µM, first compound 0.0316 µM
# [14] = second compound 0.316 µM, first compound 0.1 µM
# [15] = second compound 0.316 µM, first compound 0.316 µM
# [16] = second compound 0.316 µM, first compound 1 µM
# [17] = second compound 0.316 µM, first compound 3.16 µM
# [18] = second compound 0.316 µM, first compound 10 µM
# [19] = second compound 1 µM, first compound 0.0316 µM
# [20] = second compound 1 µM, first compound 0.1 µM
# [21] = second compound 1 µM, first compound 0.316 µM
# [22] = second compound 1 µM, first compound 1 µM
# [23] = second compound 1 µM, first compound 3.16 µM
# [24] = second compound 1 µM, first compound 10 µM
# [25] = second compound 3.16 µM, first compound 0.0316 µM
# [26] = second compound 3.16 µM, first compound 0.1 µM
# [27] = second compound 3.16 µM, first compound 0.316 µM
# [28] = second compound 3.16 µM, first compound 1 µM
# [29] = second compound 3.16 µM, first compound 3.16 µM
# [30] = second compound 3.16 µM, first compound 10 µM
# [31] = second compound 10 µM, first compound 0.0316 µM
# [32] = second compound 10 µM, first compound 0.1 µM
# [33] = second compound 10 µM, first compound 0.316 µM
# [34] = second compound 10 µM, first compound 1 µM
# [35] = second compound 10 µM, first compound 3.16 µM
# [36] = second compound 10 µM, first compound 10 µM
# 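Also: spheroids exposed to compounds for 7 days.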
# 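For viability, T/C in this document: 100% = DMSO vehicle-treated spheroids.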
smiles,measurement,setting,value
COc1cccc2c1C(=O)c1c(O)c3c(c(O)c1C2=O)CC(O)(C(=O)CO)CC3OC1CC(N)C(O)C(C)O1 (stereo unspecified) + COC1C(OC(N)=O)C(O)C(Oc2ccc3c(O)c(NC(=O)c4ccc(O)c(CC=C(C)C)c4)c(=O)oc3c2C)OC1(C)C,pIC50,second compound 0.0316 µM,6.96
same,pIC50,second compound 0.1 µM,> 7.50
same,pIC50,second compound 0.316 µM,> 7.50
same,pIC50,second compound 1 µM,6.96
same,pIC50,second compound 3.16 µM,6.84
same,pIC50,second compound 10 µM,> 7.50
same,"viability, T/C",[1],17.6%
same,"viability, T/C",[2],90.5%
same,"viability, T/C",[3],5.53%
same,"viability, T/C",[4],1.37%
same,"viability, T/C",[5],0.16%
same,"viability, T/C",[6],0.52%
same,"viability, T/C",[7],16.5%
same,"viability, T/C",[8],75.1%
same,"viability, T/C",[9],6.74%
same,"viability, T/C",[10],0.41%
same,"viability, T/C",[11],0.25%
same,"viability, T/C",[12],0.49%
same,"viability, T/C",[13],14.3%
same,"viability, T/C",[14],82%
same,"viability, T/C",[15],7.31%
same,"viability, T/C",[16],0.98%
same,"viability, T/C",[17],0.19%
same,"viability, T/C",[18],0.45%
same,"viability, T/C",[19],22.7%
same,"viability, T/C",[20],84.3%
same,"viability, T/C",[21],6.03%
same,"viability, T/C",[22],1.44%
same,"viability, T/C",[23],0.19%
same,"viability, T/C",[24],0.51%
same,"viability, T/C",[25],21.1%
same,"viability, T/C",[26],119%
same,"viability, T/C",[27],6.03%
same,"viability, T/C",[28],0.63%
same,"viability, T/C",[29],0.27%
same,"viability, T/C",[30],0.51%
same,"viability, T/C",[31],15.7%
same,"viability, T/C",[32],83.3%
same,"viability, T/C",[33],5.98%
same,"viability, T/C",[34],0.49%
same,"viability, T/C",[35],0.31%
same,"viability, T/C",[36],0.47%
CCc1c2c(nc3ccc(O)cc13)-c1cc3c(c(=O)n1C2)COC(=O)[C@]3(O)CC + COC1C(OC(N)=O)C(O)C(Oc2ccc3c(O)c(NC(=O)c4ccc(O)c(CC=C(C)C)c4)c(=O)oc3c2C)OC1(C)C,pIC50,second compound 0.0316 µM,> 8.50
same,pIC50,second compound 0.1 µM,> 8.50
same,pIC50,second compound 0.316 µM,> 8.50
same,pIC50,second compound 1 µM,> 8.50
same,pIC50,second compound 3.16 µM,> 8.50
same,pIC50,second compound 10 µM,> 8.50
same,"viability, T/C","second compound 0.0316 µM, first compound 0.00316 µM",25.5%
same,"viability, T/C","second compound 0.0316 µM, first compound 0.01 µM",17.6%
same,"viability, T/C",[1],10.6%
same,"viability, T/C",[2],8.89%
same,"viability, T/C",[3],5.32%
same,"viability, T/C",[4],3.77%
same,"viability, T/C","second compound 0.1 µM, first compound 0.00316 µM",17.9%
same,"viability, T/C","second compound 0.1 µM, first compound 0.01 µM",16.7%
same,"viability, T/C",[7],11%
same,"viability, T/C",[8],7%
same,"viability, T/C",[9],5.78%
same,"viability, T/C",[10],3%
same,"viability, T/C","second compound 0.316 µM, first compound 0.00316 µM",21.2%
same,"viability, T/C","second compound 0.316 µM, first compound 0.01 µM",15%
same,"viability, T/C",[13],11.7%
same,"viability, T/C",[14],8.14%
same,"viability, T/C",[15],5.95%
same,"viability, T/C",[16],2.76%
same,"viability, T/C","second compound 1 µM, first compound 0.00316 µM",18.1%
same,"viability, T/C","second compound 1 µM, first compound 0.01 µM",16.1%
same,"viability, T/C",[19],11.3%
same,"viability, T/C",[20],7.95%
same,"viability, T/C",[21],8.47%
same,"viability, T/C",[22],3.04%
same,"viability, T/C","second compound 3.16 µM, first compound 0.00316 µM",14.1%
same,"viability, T/C","second compound 3.16 µM, first compound 0.01 µM",16.3%
same,"viability, T/C",[25],11%
same,"viability, T/C",[26],7.05%
same,"viability, T/C",[27],4.82%
same,"viability, T/C",[28],3.32%
same,"viability, T/C","second compound 10 µM, first compound 0.00316 µM",23.3%
same,"viability, T/C","second compound 10 µM, first compound 0.01 µM",14.8%
same,"viability, T/C",[31],12.8%
same,"viability, T/C",[32],6.77%
same,"viability, T/C",[33],5.07%
same,"viability, T/C",[34],2.89%
COc1cc2cc(C(=O)CCC(=O)O)sc2cc1OC + Nc1ccc(C#CCN(C(=O)Cc2ncc(C(F)(F)F)cc2C(F)(F)F)c2ccc(F)cc2)nn1,pIC50,second compound 0.0316 µM,< 5.00
same,pIC50,second compound 0.1 µM,< 5.00
same,pIC50,second compound 0.316 µM,< 5.00
same,pIC50,second compound 1 µM,< 5.00
same,pIC50,second compound 3.16 µM,< 5.00
same,pIC50,second compound 10 µM,< 5.00
same,"viability, T/C",[1],91.1%
same,"viability, T/C",[2],98.4%
same,"viability, T/C",[3],90.1%
same,"viability, T/C",[4],110%
same,"viability, T/C",[5],136%
same,"viability, T/C",[6],99.3%
same,"viability, T/C",[7],99.4%
same,"viability, T/C",[8],97.4%
same,"viability, T/C",[9],101%
same,"viability, T/C",[10],86.8%
same,"viability, T/C",[11],105%
same,"viability, T/C",[12],105%
same,"viability, T/C",[13],93.1%
same,"viability, T/C",[14],101%
same,"viability, T/C",[15],114%
same,"viability, T/C",[16],110%
same,"viability, T/C",[17],108%
same,"viability, T/C",[18],110%
same,"viability, T/C",[19],96.1%
same,"viability, T/C",[20],97%
same,"viability, T/C",[21],104%
same,"viability, T/C",[22],95.9%
same,"viability, T/C",[23],103%
same,"viability, T/C",[24],112%
same,"viability, T/C",[25],102%
same,"viability, T/C",[26],107%
same,"viability, T/C",[27],99.7%
same,"viability, T/C",[28],112%
same,"viability, T/C",[29],117%
same,"viability, T/C",[30],108%
same,"viability, T/C",[31],99.8%
same,"viability, T/C",[32],109%
same,"viability, T/C",[33],98.1%
same,"viability, T/C",[34],95.3%
same,"viability, T/C",[35],93%
same,"viability, T/C",[36],91.7%

# Reference: PubChem BioAssay AID1963839 (Molecular Pharmacology Branch, DTP, NCI, 2024)
